What all share (format): functional
The test system of test [1] is Staphylococcus aureus. As to the kind of experiment: Antimicrobial activity against methicillin-sensitive Staphylococcus aureus ATCC 29213.
For test [2], the system named is Klebsiella pneumoniae. As to the kind of experiment: Antimicrobial activity against NDM-1 producing Klebsiella pneumoniae ATCC BAA-2146.
The subject of another test is Providencia rettgeri. As to the kind of experiment: Antimicrobial activity against Providencia rettgeri ATCC 31052.
For a further test, the system named is Enterococcus faecium. As to the kind of experiment: Antimicrobial activity against vancomycin-resistant Enterococcus faecium ATCC 700221.
Another test has as its system Citrobacter freundii. Put plainly: Antimicrobial activity against Citrobacter freundii ATCC 43864.
In test [3] the test system is Acinetobacter calcoaceticus. Put plainly: Antimicrobial activity against Acinetobacter calcoaceticus ATCC 19606.
Test [4] has as its system Staphylococcus aureus. Put plainly: Antimicrobial activity against methicillin- resistant Staphylococcus aureus ATCC 33591.
In a further test the test system is Proteus vulgaris. Put plainly: Antimicrobial activity against Proteus vulgaris ATCC 29905.
Test [5] deals with Klebsiella pneumoniae. As to the kind of experiment: Antimicrobial activity against ESBL-producing Klebsiella pneumoniae ATCC 700603.
Test [6] deals with Enterococcus faecalis. Put plainly: Antimicrobial activity against Vancomycin-resistant Enterococcus faecalis ATCC 51299.
The subject of another test is Pseudomonas aeruginosa. As to the kind of experiment: Antimicrobial activity against Pseudomonas aeruginosa ATCC 27853.
Another test relates to Escherichia coli. Put plainly: Antimicrobial activity against Escherichia coli ATCC 25922.
Test [7] concerns Staphylococcus epidermidis. Put plainly: Antimicrobial activity against methicillin-susceptible Staphylococcus epidermidis ATCC 12228.
Test [8] deals with Enterococcus faecalis. Put plainly: Antimicrobial activity against Vancomycin-sensitive Enterococcus faecalis ATCC 29212.
The test system of test [9] is Klebsiella pneumoniae. Put plainly: Antimicrobial activity against Klebsiella pneumoniae 7.

Values after ≈ are worked out from the molar mass of the structure shown.

As for `CN(C)C(=N)c1ccc2cc(-c3ccc(Oc4ccc(-c5cc6ccc(C(=N)N(C)C)cc6[nH]5)cc4)cc3)[nH]c2c1`, the MIC against Staphylococcus aureus [1] is 0.25 µg/mL (≈ 0.462 µM); in the test on Klebsiella pneumoniae [2] it was 8 µg/mL (≈ 14.8 µM); against Providencia rettgeri, 8 µg/mL (≈ 14.8 µM); with Enterococcus faecium, 2 µg/mL (≈ 3.7 µM); against Citrobacter freundii, 8 µg/mL (≈ 14.8 µM); in test [3] it was more than 128 µg/mL. Further, the MIC in the test on Staphylococcus aureus [4] worked out at 0.25 µg/mL (≈ 0.462 µM); in the test with Proteus vulgaris, 8 µg/mL (≈ 14.8 µM); in the test with Klebsiella pneumoniae [5], 8 µg/mL (≈ 14.8 µM); in the test with Enterococcus faecalis [6], 1 µg/mL (≈ 1.85 µM); against Pseudomonas aeruginosa, 128 µg/mL (≈ 237 µM); in the test with Escherichia coli it was 4 µg/mL (≈ 7.4 µM). Besides, the MIC was found to be 0.125 µg/mL (≈ 0.231 µM) in test [7], 0.5 µg/mL (≈ 0.925 µM) against Enterococcus faecalis [8] and 8 µg/mL (≈ 14.8 µM) against Klebsiella pneumoniae [9].

For `CC(C)NC(=N)c1ccc2cc(-c3ccc(Oc4ccc(-c5cc6ccc(C(=N)NC(C)C)cc6[nH]5)cn4)cc3)[nH]c2c1`, the MIC is 0.25 µg/mL (≈ 0.439 µM) in the test with Staphylococcus aureus [1]; 16 µg/mL (≈ 28.1 µM) against Klebsiella pneumoniae [2]; 16 µg/mL (≈ 28.1 µM) in the test on Providencia rettgeri; 0.25 µg/mL (≈ 0.439 µM) in the test on Enterococcus faecium; 8 µg/mL (≈ 14 µM) with Citrobacter freundii; 64 µg/mL (≈ 112 µM) in test [3]. Moreover, the MIC turned out to be 0.25 µg/mL (≈ 0.439 µM) in the test on Staphylococcus aureus [4]; 16 µg/mL (≈ 28.1 µM) with Proteus vulgaris; 8 µg/mL (≈ 14 µM) in the test on Klebsiella pneumoniae [5]; 1 µg/mL (≈ 1.76 µM) in the test on Enterococcus faecalis [6]; 32 µg/mL (≈ 56.2 µM) with Pseudomonas aeruginosa; 4 µg/mL (≈ 7.02 µM) against Escherichia coli. Also, the MIC came out at 0.25 µg/mL (≈ 0.439 µM) in test [7], 1 µg/mL (≈ 1.76 µM) in the test with Enterococcus faecalis [8] and 8 µg/mL (≈ 14 µM) against Klebsiella pneumoniae [9].

`CNC(=N)c1ccc2cc(-c3ccc(Oc4ccc(-c5cc6ccc(C(=N)NC)cc6[nH]5)c(C(F)(F)F)c4)cc3)[nH]c2c1`: the MIC in the test with Staphylococcus aureus [1] was 0.5 µg/mL (≈ 0.861 µM); with Klebsiella pneumoniae [2], 8 µg/mL (≈ 13.8 µM); in the test on Providencia rettgeri, 32 µg/mL (≈ 55.1 µM); against Enterococcus faecium, 0.5 µg/mL (≈ 0.861 µM); with Citrobacter freundii, 8 µg/mL (≈ 13.8 µM); in [3] it was 32 µg/mL (≈ 55.1 µM). Besides, the MIC came out at 0.5 µg/mL (≈ 0.861 µM) with Staphylococcus aureus [4]; 16 µg/mL (≈ 27.6 µM) against Proteus vulgaris; 16 µg/mL (≈ 27.6 µM) against Klebsiella pneumoniae [5]; 1 µg/mL (≈ 1.72 µM) in the test with Enterococcus faecalis [6]; 64 µg/mL (≈ 110 µM) in the test on Pseudomonas aeruginosa; 4 µg/mL (≈ 6.89 µM) in the test on Escherichia coli. Further, the figures for the minimum inhibitory concentration (MIC) (in [7]; with Enterococcus faecalis [8]; against Klebsiella pneumoniae [9]) were 0.25 µg/mL (≈ 0.431 µM), 0.5 µg/mL (≈ 0.861 µM) and 8 µg/mL (≈ 13.8 µM), respectively.

For `CC(C)NC(=N)c1ccc2cc(-c3ccc(Oc4ccc(-c5cc6ccc(C(=N)NC(C)C)cc6[nH]5)c(Cl)c4)cc3)[nH]c2c1`, the minimum inhibitory concentration (MIC) against Staphylococcus aureus [1] was 8 µg/mL (≈ 13.3 µM); against Klebsiella pneumoniae [2] it was more than 128 µg/mL; in the test on Providencia rettgeri, more than 128 µg/mL; with Enterococcus faecium, 8 µg/mL (≈ 13.3 µM); against Citrobacter freundii, more than 128 µg/mL; in test [3], more than 128 µg/mL. Also, the MIC was 8 µg/mL (≈ 13.3 µM) against Staphylococcus aureus [4]; more than 128 µg/mL against Proteus vulgaris; more than 128 µg/mL in the test with Klebsiella pneumoniae [5]; 16 µg/mL (≈ 26.5 µM) with Enterococcus faecalis [6]; more than 128 µg/mL against Pseudomonas aeruginosa; 128 µg/mL (≈ 212 µM) in the test with Escherichia coli. Further, the MIC is 1 µg/mL (≈ 1.66 µM) in [7], 16 µg/mL (≈ 26.5 µM) against Enterococcus faecalis [8] and more than 128 µg/mL with Klebsiella pneumoniae [9].

As to `CNC(=N)c1ccc2cc(-c3ccc(Oc4ccc(-c5cc6ccc(C(=N)NC)cc6[nH]5)c(C(F)(F)F)c4)cn3)[nH]c2c1`, the MIC in the test on Staphylococcus aureus [1] is 0.5 µg/mL (≈ 0.86 µM); in the test with Klebsiella pneumoniae [2], 16 µg/mL (≈ 27.5 µM); with Providencia rettgeri, 64 µg/mL (≈ 110 µM); with Enterococcus faecium, 0.5 µg/mL (≈ 0.86 µM); in the test on Citrobacter freundii, 16 µg/mL (≈ 27.5 µM); in test [3], 64 µg/mL (≈ 110 µM). The MIC is 0.5 µg/mL (≈ 0.86 µM) with Staphylococcus aureus [4]; 64 µg/mL (≈ 110 µM) against Proteus vulgaris; 32 µg/mL (≈ 55 µM) in the test with Klebsiella pneumoniae [5]; 1 µg/mL (≈ 1.72 µM) against Enterococcus faecalis [6]; 64 µg/mL (≈ 110 µM) against Pseudomonas aeruginosa; 8 µg/mL (≈ 13.8 µM) in the test with Escherichia coli. Further, the MIC in test [7] worked out at 0.25 µg/mL (≈ 0.43 µM); in the test with Enterococcus faecalis [8] it was 1 µg/mL (≈ 1.72 µM); against Klebsiella pneumoniae [9], 16 µg/mL (≈ 27.5 µM).

On to `CNC(=N)c1ccc2cc(-c3ccc(Oc4ccc(-c5cc6ccc(C(=N)NC)cc6[nH]5)cn4)cc3)[nH]c2c1`, for which the MIC against Staphylococcus aureus [1] was 0.25 µg/mL (≈ 0.487 µM); in the test on Klebsiella pneumoniae [2] it was more than 128 µg/mL; in the test on Providencia rettgeri, more than 128 µg/mL; with Enterococcus faecium, 0.25 µg/mL (≈ 0.487 µM); against Citrobacter freundii it was 128 µg/mL (≈ 249 µM); in test [3], 128 µg/mL (≈ 249 µM). In addition, the MIC with Staphylococcus aureus [4] was 0.25 µg/mL (≈ 0.487 µM); in the test on Proteus vulgaris, more than 128 µg/mL; against Klebsiella pneumoniae [5], more than 128 µg/mL; in the test with Enterococcus faecalis [6], 1 µg/mL (≈ 1.95 µM); in the test on Pseudomonas aeruginosa, more than 128 µg/mL; in the test on Escherichia coli, 16 µg/mL (≈ 31.2 µM). For the same compound, the MIC is 0.125 µg/mL (≈ 0.243 µM) in [7], 1 µg/mL (≈ 1.95 µM) against Enterococcus faecalis [8] and 128 µg/mL (≈ 249 µM) with Klebsiella pneumoniae [9].

As to `CN[C@H](CC(C)C)C(=O)N[C@H]1C(=O)N[C@@H](CC(N)=O)C(=O)N[C@H]2C(=O)N[C@H]3C(=O)N[C@H](C(=O)N[C@H](C(=O)O)c4cc(O)cc(O)c4-c4cc3ccc4O)[C@H](O)c3ccc(c(Cl)c3)Oc3cc2cc(c3O[C@@H]2O[C@H](CO)[C@@H](O)[C@H](O)[C@H]2O[C@H]2C[C@](C)(N)[C@H](O)[C@H](C)O2)Oc2ccc(cc2Cl)[C@H]1O` [VANCOMYCIN], the results for the MIC (in test [7]; in the test with Enterococcus faecalis [8]) were 0.5 µg/mL (≈ 0.345 µM) and 1 µg/mL (≈ 0.69 µM), respectively.

The record behind these values is ChEMBL document CHEMBL4627293, “Synthesis and in vitro activity of asymmetric indole-based bisamidine compounds against Gram-positive and Gram-negative pathogens” (2020).
